Consider 24 molecules from patent US8859541B2, “6-alkynylpyridines” (Boehringer Ingelheim International GmbH, priority 2012, dated 2014).

Broadly, the pIC50 is the IC50 on a negative log10 scale, so that one unit is a factor of ten. The low end stands for a large IC50, the high end for a small IC50.

The target in one experiment is T1, XIAP BIR3 (Homo sapiens, UniProt P98170).
T1 construct: covering amino acids 241 to 356; XIAP BIR3; made in house; host or cells: E. coli
In words: XIAP BIR3 binding assay (DELFIA), displacement of SMAC peptide. The settings on record: GST-fusion BIR3 domain (aa 241 to 356) 10 nM, SMAC peptide 10 nM; activity of the (S)-isomers. In outline: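 Each BIR3 domain (10 nM) incubated with biotinylated N-terminal SMAC peptide (10 nM) and compound for 1 h at room temp in Tris/NaCl buffer with BSA, DTT and Triton X-100. Captured on streptavidin plates; bound BIR3 detected by Eu-labelled anti-GST time-resolved fluorescence, giving IC50 values.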

In a further experiment the target is T2, cIAP1 BIR3 (Homo sapiens, UniProt Q13490).
T2 construct: covering amino acids 256 to 363; cIAP1 BIR3; made in house; host or cells: E. coli
In words: cIAP1 BIR3 binding assay (DELFIA), displacement of SMAC peptide. The settings on record: GST-fusion BIR3 domain (aa 256 to 363) 10 nM, SMAC peptide 10 nM; activity of the (S)-isomers. As for the experimental part:
Biological Methods XIAP BIR3 and cIAP1 BIR3 Binding Assays (DELFIA)
Peptide […]-Lys(Biotin), representing the N-terminus of mature human SMAC (SMAC peptide), was used as interaction partner in the protein-peptide interaction assay.
BIR3 domains (10 nM) were incubated with SMAC peptide (10 nM) in Assay Buffer (50 mM Tris, 120 mM NaCl, 0.1% BSA, 1 mM DTT, 0.05% TritonX100) for one hour at room temperature in the presence of inhibitiory compounds. The assay mixture was transferred to a strepatvidin coated plate and incubated for one hour at room temperature to allow binding of the biotinylated peptide and associated BIR3 domains to the plate. After several washing steps Eu labeled anti-GST antibody (e.g. Perkin Elmer DELFIA Eu-N1-antiGST AD0250) was added to detect BIR3 domain-SMAC peptide interactions according to Perkin Elmer's instructions. […] Time resolved Europium fluoresecence was measured in a Wallac Victor using Standard assay settings.
DELFIA assay results were plotted against compound concentrations and Software GraphPad Prizm was used to calculate half maximal inhibitory concentrations (IC50 values).

Molecules are shown by their SMILES. pIC50: −log10 of the molar value.

T2 sequence (Q13490 256-363): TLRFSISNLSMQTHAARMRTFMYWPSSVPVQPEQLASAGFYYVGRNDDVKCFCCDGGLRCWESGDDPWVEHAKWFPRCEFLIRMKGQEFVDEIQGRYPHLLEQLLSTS
T1 sequence (P98170 241-356): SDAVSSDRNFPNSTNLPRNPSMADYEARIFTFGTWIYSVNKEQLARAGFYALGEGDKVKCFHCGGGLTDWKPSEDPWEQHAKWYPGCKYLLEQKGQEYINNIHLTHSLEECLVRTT

For `CNC(C)C(=O)Nc1ccc(-c2cncc(C(=O)OC)c2)c(C#Cc2cccc(C)c2)n1` (centres unmarked) [Example 13, methyl 5-[6-[[2-(methyl-amino)propanoyl]amino]-2-[2-(3-methylphenyl)ethynyl]-pyridin-3-yl]pyridine-3-carboxylate], the results for the pIC50 at XIAP BIR3 and on cIAP1 BIR3 were 7.02 and 7.92, respectively.

As for `CNC(C)C(=O)Nc1ccc(-c2c(C)nc3ccccn23)c(C#Cc2ccc3c(ccc(=O)n3C)c2)n1` (centres unmarked) [Example 26, 2-(methylamino)-N-[5-(2-methylimidazo[1,2-a]pyridin-3-yl)-6-[2-(1-methyl-2-oxoquinolin-6-yl)ethynyl]pyridin-2-yl]propanamide], the pIC50 on XIAP BIR3 was 6.24; on cIAP1 BIR3, 9.00.

Take `CNC(C)C(=O)Nc1ccc(-c2c(C)nc3ccccn23)c(C#Cc2ccc3ncccc3c2)n1` (centres unmarked) [Example 28, 2-(methylamino)-N-[5-(2-methylimidazo[1,2-a]pyridin-3-yl)-6-(2-quinolin-6-ylethynyl)-pyridin-2-yl]propanamide]: the pIC50 was 6.70 on XIAP BIR3 and 9.00 on cIAP1 BIR3.

Turning to `CNC(C)C(=O)Nc1ccc(-c2c(C)nc3ccccn23)c(C#Cc2ccc3cnccc3c2)n1` (centres unmarked) [Example 29, N-[6-(2-isoquinolin-6-yl-ethynyl)-5-(2-methyl-imidazo[1,2-a]pyridin-3-yl)-pyridin-2-yl]-2-(methylamino)-propanamide], the results for the pIC50 on XIAP BIR3 and on cIAP1 BIR3 were 6.84 and 9.00, respectively.

In the case of `CNC(C)C(=O)Nc1ccc(-c2c(C)nc3ccccn23)c(C#Cc2ccc3nc(C)ccc3c2)n1` (centres unmarked) [Example 30, 2-(methylamino)-N-[5-(2-methylimidazo[1,2-a]pyridin-3-yl)-6-[2-(2-methylquinolin-6-yl)ethynyl]pyridin-2-yl]propan-amide], the pIC50 on XIAP BIR3 was 6.38; on cIAP1 BIR3 it was 9.00.

Take `CNC(C)C(=O)Nc1ccc(-c2c(C)nc3ccccn23)c(C#Cc2ccc3c(c2)CN(C)C3=O)n1` (centres unmarked) [Example 31, 2-(methylamino)-N-[5-(2-methylimidazo[1,2-a]pyridin-3-yl)-6-[2-(2-methyl-1-oxo-3H-isoindol-5-yl)ethynyl]pyridin-2-yl]propanamide]: the pIC50 at XIAP BIR3 was 6.64; on cIAP1 BIR3, 9.00.

Consider `CNC(C)C(=O)Nc1ccc(-c2c(C)nc3ccccn23)c(C#Cc2ccc3c(c2)OCC(=O)N3C)n1` (centres unmarked) [Example 33, 2-(methylamino)-N-[5-(2-methylimidazo[1,2-a]pyridin-3-yl)-6-[2-(4-methyl-3-oxo-1,4-benzoxazin-7-yl)ethynyl]-pyridin-2-yl]propanamide], for which the pIC50 on XIAP BIR3 is 6.56; on cIAP1 BIR3 it was 9.00.

For `CNC(C)C(=O)Nc1ccc(-c2c(C)nc3ccccn23)c(C#Cc2ccc(-c3ccon3)cc2)n1` (centres unmarked) [Example 34, 2-(methylamino)-N-[5-(2-methylimidazo[1,2-a]pyridin-3-yl)-6-[2-[4-(1,2-oxazol-3-yl)-phenyl]ethynyl]pyridin-2-yl]-propanamide], the negative logarithm of the IC50 (pIC50) was 6.55 on XIAP BIR3 and 9.00 on cIAP1 BIR3.

For the molecule `CNC(C)C(=O)Nc1ccc(-c2c(C)nc(N3CCOCC3)nc2C)c(C#Cc2ccc3c(ccc(=O)n3C)c2)n1` (centres unmarked) [Example 35, N-[5-(4,6-dimethyl-2-morpholin-4-ylpyrimidin-5-yl)-6-[2-(1-methyl-2-oxoquinolin-6-yl)ethynyl]pyridin-2-yl]-2-(methylamino)propanamide], the values for the pIC50 on XIAP BIR3 and on cIAP1 BIR3 were 5.83 and 9.00, respectively.

As for `CNC(C)C(=O)Nc1ccc(-c2c(C)nc3ccccn23)c(C#Cc2ccc(-c3cccnc3)cc2)n1` (centres unmarked) [Example 36, 2-(methylamino)-N-[5-(2-methylimidazo[1,2-a]pyridin-3-yl)-6-[2-(4-pyridin-3-ylphenyl)-ethynyl]pyridin-2-yl]propan-amide], the pIC50 on XIAP BIR3 was 6.95; at cIAP1 BIR3 it was 9.00.

`CNC(C)C(=O)Nc1ccc(-c2c(C)nc3ccccn23)c(C#Cc2ccc(-n3cncn3)cc2)n1` (centres unmarked) [Example 37, 2-(methylamino)-N-[5-(2-methylimidazo[1,2-a]pyridin-3-yl)-6-[2-[4-(1,2,4-triazol-1-yl)-phenyl]ethynyl]pyridin-2-yl]-propanamide]: the pIC50 at XIAP BIR3 is 6.78; at cIAP1 BIR3, 9.00.

As for `CNC(C)C(=O)Nc1ccc(-c2c(-c3ccncc3)nc3cc(C)ccn23)c(C#Cc2ccc(Cl)c(Cl)c2)n1` (centres unmarked) [Example 39, N-[6-[2-(3,4-dichlorophenyl)-ethynyl)-5-(7-methyl-2-pyridin-4-ylimidazo[1,2-a]pyridin-3-yl)-pyridin-2-yl]-2-(methylamino)-propanamide], the pIC50 on XIAP BIR3 was 7.06; at cIAP1 BIR3 it was 9.00.

As to `CNC(C)C(=O)Nc1ccc(-c2c(C)nc3ccccn23)c(C#Cc2ccc(C#N)c(Cl)c2)n1` (centres unmarked) [Example 41, N-[6-[2-(3-chloro-4-cyanophenyl)ethynyl]-5-(2-methylimidazo[1,2-a]pyridin-3-yl)pyridin-2-yl]-2-(methyl-amino)propanamide], the pIC50 was 6.91 on XIAP BIR3 and 9.00 at cIAP1 BIR3.

Take `CNC(C)C(=O)Nc1ccc(-c2c(C)nc3ccccn23)c(C#Cc2ccc3ncsc3c2)n1` (centres unmarked) [Example 42, N-[6-[2-(1,3-benzothiazol-6-yl)-ethynyl]-5-(2-methyl-imidazo[1,2-a]pyridin-3-yl)-pyridin-2-yl]-2-(methylamino)-propanamide]: the pIC50 on XIAP BIR3 was 7.03; at cIAP1 BIR3, 9.00.

Consider `CNC(C)C(=O)Nc1ccc(-c2c(C)nc3ccccn23)c(C#Cc2ccc(-c3cnco3)cc2)n1` (centres unmarked) [Example 44, 2-(methylamino)-N-[5-(2-methylimidazo[1,2-a]pyridin-3-yl)-6-[2-[4-(1,3-oxazol-5-yl)-phenyl]ethynyl]pyridin-2-yl]-propanamide], for which the values for the pIC50 at XIAP BIR3 and on cIAP1 BIR3 were 6.87 and 9.00, respectively.

Turning to `CNC(C)C(=O)Nc1ccc(-c2c(C)ncnc2C)c(C#Cc2ccc3cnccc3c2)n1` (centres unmarked) [Example 45, N-[5-(4,6-dimethylpyrimidin-5-yl)-6-(2-isoquinolin-6-yl-ethynyl)pyridin-2-yl]-2-(methyl-amino)propanamide], the results for the pIC50 on XIAP BIR3 and on cIAP1 BIR3 were 6.37 and 8.70, respectively.

`CNC(C)C(=O)Nc1ccc(-c2c(C)nc3cc(Cl)ccn23)c(C#Cc2ccc3ncccc3c2)n1` (centres unmarked) [Example 46, N-[5-(7-chloro-2-methyl-imidazo[1,2-a]pyridin-3-yl)-6-(2-quinolin-6-ylethynyl)pyridin-2-yl]-2-(methylamino)propan-amide]: the results for the negative logarithm of the IC50 (pIC50) on XIAP BIR3 and at cIAP1 BIR3 were 6.84 and 9.00, respectively.

For the molecule `CNC(C)C(=O)Nc1ccc(-c2c(C)nc3cc(F)ccn23)c(C#Cc2ccc3ncccc3c2)n1` (centres unmarked) [Example 47, N-[5-(7-fluoro-2-methyl-imidazo[1,2-a]pyridin-3-yl)-6-(2-quinolin-6-ylethynyl)pyridin-2-yl]-2-(methylamino)propan-amide], the pIC50 on XIAP BIR3 is 6.74; on cIAP1 BIR3, 9.00.

For `CNC(C)C(=O)Nc1ccc(-c2c(C)nc3ccccn23)c(C#Cc2ccc3nccn3c2)n1` (centres unmarked) [Example 48, N-[6-(2-imidazo[1,2-a]pyridin-6-ylethynyl)-5-(2-methyl-imidazo[1,2-a]pyridin-3-yl)-pyridin-2-yl]-2-(methylamino)-propanamide], the pIC50 at XIAP BIR3 was 6.67; on cIAP1 BIR3 it was 9.00.

On to `CNC(C)C(=O)Nc1ccc(-c2c(C)nc3ccccn23)c(C#Cc2ccc3cnn(C)c3c2)n1` (centres unmarked) [Example 49, 2-(methylamino)-N-[5-(2-methylimidazo[1,2-a]pyridin-3-yl)-6-[2-(1-methylindazol-6-yl)-ethynyl]pyridin-2-yl]propan-amide], for which the pIC50 is 6.97 at XIAP BIR3 and 9.00 at cIAP1 BIR3.

In the case of `CNC(C)C(=O)Nc1ccc(-c2c(C)nc3ccccn23)c(C#Cc2cc3ccncc3s2)n1` (centres unmarked) [Example 50, 2-(methylamino)-N-[5-(2-methylimidazo[1,2-a]pyridin-3-yl)-6-(2-thieno[2,3-c]pyridin-2-ylethynyl)pyridin-2-yl]propan-amide], the pIC50 at XIAP BIR3 is 7.02; on cIAP1 BIR3 it was 9.00.

In the case of `CNC(C)C(=O)Nc1ccc(-c2c(C)nc3ccccn23)c(C#Cc2ccc3occc3c2)n1` (centres unmarked) [Example 52, N-[6-[2-(1-benzofuran-5-yl)-ethynyl)-5-(2-methyl-imidazo[1,2-a]pyridin-3-yl)-pyridin-2-yl]-2-(methylamino)-propanamide], the pIC50 was 6.84 at XIAP BIR3 and 9.00 on cIAP1 BIR3.

`CNC(C)C(=O)Nc1ccc(-c2c(C)nc3ccccn23)c(C#Cc2ccc3c(c2)COC3)n1` (centres unmarked) [Example 53, N-[6-[2-(1,3-dihydro-2-benzofuran-5-yl)ethynyl]-5-(2-methylimidazo[1,2-a]pyridin-3-yl)pyridin-2-yl]-2-(methyl-amino)propanamide]: the pIC50 at XIAP BIR3 is 6.94; at cIAP1 BIR3, 9.00.

Consider `CNC(C)C(=O)Nc1ccc(N(C)C(=O)C2CCCC2)c(C#Cc2ccccc2)n1` (centres unmarked) [Example 248, N-methyl-N-[6-[[2-(methyl-amino)propanoyl]amino]-2-(2-phenylethynyl)pyridin-3-yl]-cyclopentanecarboxamide], for which the pIC50 at XIAP BIR3 was 6.10.
